Reference: paper PMC8919384 (ACS Medicinal Chemistry Letters, 2022)
≈ marks a conversion by molar mass, not a printed value.

Experiments:
[1] = Solubility; assay type: physicochemical; conditions: pH 1.2, simulated gastric fluid
[2] = test system: adult rat model of focal cerebral ischemia; conditions: cited from earlier work
[3] = test system: melanoma-bearing mice; conditions: combined with anti-CTLA-4 mAb; cited from earlier work
[4] = test system: lung metastasis model; conditions: cited from earlier work
[5] = target: T1, A1 AR (Homo sapiens, UniProt P30542); conditions: binding Ki
T1 sequence (P30542 1-326): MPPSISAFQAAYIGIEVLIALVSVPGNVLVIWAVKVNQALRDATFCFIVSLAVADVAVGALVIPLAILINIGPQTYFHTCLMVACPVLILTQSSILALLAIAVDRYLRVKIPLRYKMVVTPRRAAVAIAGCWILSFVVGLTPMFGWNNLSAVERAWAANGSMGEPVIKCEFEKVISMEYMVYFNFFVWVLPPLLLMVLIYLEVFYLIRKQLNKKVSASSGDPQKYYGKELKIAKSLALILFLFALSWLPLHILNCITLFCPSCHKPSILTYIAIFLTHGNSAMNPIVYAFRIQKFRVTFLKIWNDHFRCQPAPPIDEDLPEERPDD

Cn1cc(-c2cnc(N)n3nc(-c4ccco4)nc23)ccc1=O [1a]
solubility [1]: 1990 µg/mL (≈ 6.45 mM)

Nc1nc2c(cnn2CCc2ccccc2)c2nc(-c3ccco3)nn12 [SCH58261]
ischemic brain damage [2]: reduced ischemic brain damage

Nc1nc(NCCc2ccc(O)cc2)nc2nc(-c3ccco3)nn12 [ZM241385]
tumor growth in melanoma-bearing mice [3]: remarkable delay in tumor growth
tumor growth in a lung metastasis model [4]: significantly inhibited tumor growth

Cc1cnc(-c2nc3c(-c4ccc(=O)n(C)c4)cnc(N)n3n2)s1 [1d]
selectivity for A1 AR over the A2A AR [5]: two-fold
